# Where “and” joins values, the source holds several entries; their conditions need not be identical. Equal values may be shown once.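 48-hour exposure; five concentrations; linearly interpolated endpoints. At the GI50, growth is halved. TGI marks complete inhibition of growth.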
# Key:
# Experiment in all cases: NCI tumour cell line growth inhibition, 48 h
# HOP-62 NSCLC = test system: HOP-62 NSCLC
# OVCAR-8 ovarian = test system: OVCAR-8 ovarian
# SF-295 CNS = test system: SF-295 CNS
# IGROV1 ovarian = test system: IGROV1 ovarian
# UACC-257 melanoma = test system: UACC-257 melanoma
# SF-268 CNS = test system: SF-268 CNS
# U251 CNS = test system: U251 CNS
# HCC-2998 colon = test system: HCC-2998 colon
# NCI-H226 lung = test system: NCI-H226 lung
# NCI-H460 lung = test system: NCI-H460 lung
SMILES,TGI (HOP-62 NSCLC),TGI (OVCAR-8 ovarian),TGI (SF-295 CNS),TGI (IGROV1 ovarian),TGI (UACC-257 melanoma),TGI (SF-268 CNS),TGI (U251 CNS),TGI (HCC-2998 colon),TGI (NCI-H226 lung),TGI (NCI-H460 lung),GI50 (HOP-62 NSCLC),GI50 (OVCAR-8 ovarian),GI50 (NCI-H460 lung),GI50 (IGROV1 ovarian),GI50 (UACC-257 melanoma),GI50 (SF-268 CNS),GI50 (U251 CNS),GI50 (HCC-2998 colon),GI50 (SF-295 CNS),GI50 (NCI-H226 lung)
COC(=O)C#CCC1CCCC1C1SCCS1 (configuration not stated),> 100 µM,> 100 µM,> 100 µM,> 100 µM,> 100 µM,> 100 µM,> 100 µM,> 100 µM,> 100 µM,–,–,–,–,–,–,–,–,–,–,–
O=C(COc1ccc(Cl)cc1)N1CCN(C(=O)COc2ccc(Cl)cc2)c2ccccc21,> 100 µM,> 100 µM,> 100 µM,> 100 µM,> 100 µM,> 100 µM,> 100 µM,> 100 µM,–,> 100 µM,–,–,–,–,–,–,–,–,–,–
COc1cccc2c1[C@H]1CO[C@H]3C4C[C@H](C(=O)O)C([C@@H](C2)N13)N4C (some centres not stated),9.75 µM and 5.44 µM,7.05 µM and 34.4 µM,> 41.8 µM,9.94 µM and 1.59 µM,5.15 µM and 1.81 µM,7.43 µM and > 32 µM,5.52 µM,8.08 µM and 1.2 µM,5.59 µM,> 38.2 µM,3.92 µM and 1.72 µM,2.81 µM and 0.888 µM,1.36 µM,0.551 µM,0.703 µM,1.13 µM,0.5 µM,0.593 µM,–,–
NCCC(=O)NC(Cc1cnc[nH]1)C(=O)O (configuration not stated),> 100 µM,> 100 µM,> 100 µM,> 100 µM,> 100 µM,> 100 µM,> 100 µM,> 100 µM,> 100 µM,> 100 µM,–,–,–,–,–,–,–,–,–,–
Nc1n[nH]c2ccc([C@@H]3Nc4cc5[nH]ncc5cc4[C@H]4C5CCC(C5)[C@@H]34)cc12 (some centres not stated),98 µM,> 100 µM,19.2 µM,41.8 µM,> 78.4 µM,> 100 µM,> 58 µM,49.1 µM,46.2 µM,> 41.4 µM,0.689 µM,0.511 µM,0.368 µM,0.533 µM,14.9 µM,1.71 µM,0.43 µM,0.789 µM,0.257 µM,1.17 µM
COc1cc(C2CC(=O)Nc3c2cc(Br)c2ccccc32)cc(Br)c1OC (configuration not stated),3.9 µM,> 100 µM,5.4 µM,> 63.9 µM,> 100 µM,> 100 µM,3.7 µM,> 100 µM,5.57 µM,5 µM,1.45 µM,1.74 µM,1.66 µM,2.61 µM,12.6 µM,4.63 µM,1.42 µM,4.53 µM,1.47 µM,2.34 µM
CCN(CC)C(=S)SSC(=S)N(CC)CC,> 67.9 µM and 112 µM,50.7 µM and 33.5 µM,> 50.2 µM and 278 µM,543 µM,> 88.2 µM and 148 µM,> 58 µM and 42.6 µM,31 µM and 30.7 µM,> 67.9 µM and 124 µM,> 58.7 µM and 307 µM,84.2 µM and 66.4 µM,33.9 µM and 33.7 µM,18.8 µM and 15.8 µM,23.8 µM and 17.4 µM,142 µM,35.4 µM and 34.3 µM,22 µM and 18.6 µM,15.8 µM and 13.7 µM,28.7 µM and 31.3 µM,11.4 µM and 50.8 µM,27.6 µM and 82 µM
O=C(NCC(=O)N1CCOC1=O)OCc1ccccc1,> 100 µM,> 100 µM,> 100 µM,> 100 µM,> 100 µM,> 100 µM,> 100 µM,> 100 µM,> 100 µM,> 100 µM,–,–,–,–,–,–,–,–,–,–
COc1ccc2c(c1)C(=O)c1c-2c(N2CCNCC2)nc2ccccc12,–,23.4 µM,27.4 µM,8.7 µM,5.11 µM,11.9 µM,16.6 µM,–,28.9 µM,1.98 µM,–,5.81 µM,0.614 µM,2.37 µM,2.38 µM,2.14 µM,4.6 µM,–,10.4 µM,10.9 µM
COc1cc2c(cc1-c1coc3cc(OCC=C(C)C)ccc3c1=O)OCO2,89.1 µM,–,> 100 µM,> 100 µM,> 100 µM,> 100 µM,> 100 µM,44.8 µM,–,35.1 µM,–,–,–,–,–,–,–,–,–,–
O=C(O)[C@@H](NS(=O)(=O)c1ccc2ccccc2c1)c1ccccc1,–,–,–,> 100 µM,> 100 µM,> 100 µM,> 100 µM,> 100 µM,–,> 100 µM,–,–,–,–,–,–,–,–,–,–
N.N.N.N.N.O=S(=O)([O-])C(F)(F)F.O=S(=O)([O-])C(F)(F)F.[Os+8],20 µM,86.7 µM,62.8 µM,64.1 µM,> 100 µM,–,32.5 µM,20.2 µM,8.69 µM,> 100 µM,6.34 µM,13.5 µM,5.21 µM,21.3 µM,22.2 µM,–,9.22 µM,7.02 µM,8.07 µM,2.59 µM
Cc1ccc(Sc2oc(-c3ccc(C)cc3)nc2[P+](c2ccccc2)(c2ccccc2)c2ccccc2)cc1,–,1.65 µM,1.02 µM,–,1.15 µM,1.66 µM,1.41 µM,1.57 µM,–,1.12 µM,–,0.345 µM,0.312 µM,–,0.303 µM,0.399 µM,0.303 µM,0.399 µM,0.291 µM,–
Cc1cc(C)nc(NS(=O)(=O)c2ccc(NC(=O)c3cccn4c(=O)c5ccccc5nc34)cc2)n1,> 100 µM,85.2 µM,> 100 µM,> 100 µM,–,> 100 µM,> 100 µM,> 100 µM,97.3 µM,> 100 µM,–,–,–,–,–,–,–,–,–,–
Cc1c2ccncc2c(C)c2c1c1cc(CO)ccc1n2C,2.05 µM,10.1 µM,2.5 µM,1.76 µM,–,7.81 µM,1.94 µM,3.42 µM,–,1.1 µM,0.335 µM,0.449 µM,0.243 µM,0.214 µM,–,0.468 µM,0.293 µM,0.72 µM,0.383 µM,–
CN1CCc2c1nc(-c1cccnc1)c1c2N(C)CC1,> 100 µM,> 100 µM,> 100 µM,> 100 µM,> 100 µM,> 100 µM,> 100 µM,> 100 µM,–,> 100 µM,–,–,–,–,–,–,–,–,–,–
